# Publication PMC10997755, “Discovery of a small-molecule inhibitor that traps Polθ on DNA and synergizes with PARP inhibitors” (Nature Communications, 2024)
# Values joined by “and” are separate entries in the source; they are usually repeats but may differ in a detail not shown here. Equal values may be shown once.
# How the values were obtained:
# Polγ = target: T1, Polγ (Homo sapiens, UniProt P54098); experiment: Primer extension by recombinant Pols (selectivity); assay type: biochemical
# T1 construct: gift: Dr. Copeland (NIEHS)
# T1 sequence (P54098 1-1239): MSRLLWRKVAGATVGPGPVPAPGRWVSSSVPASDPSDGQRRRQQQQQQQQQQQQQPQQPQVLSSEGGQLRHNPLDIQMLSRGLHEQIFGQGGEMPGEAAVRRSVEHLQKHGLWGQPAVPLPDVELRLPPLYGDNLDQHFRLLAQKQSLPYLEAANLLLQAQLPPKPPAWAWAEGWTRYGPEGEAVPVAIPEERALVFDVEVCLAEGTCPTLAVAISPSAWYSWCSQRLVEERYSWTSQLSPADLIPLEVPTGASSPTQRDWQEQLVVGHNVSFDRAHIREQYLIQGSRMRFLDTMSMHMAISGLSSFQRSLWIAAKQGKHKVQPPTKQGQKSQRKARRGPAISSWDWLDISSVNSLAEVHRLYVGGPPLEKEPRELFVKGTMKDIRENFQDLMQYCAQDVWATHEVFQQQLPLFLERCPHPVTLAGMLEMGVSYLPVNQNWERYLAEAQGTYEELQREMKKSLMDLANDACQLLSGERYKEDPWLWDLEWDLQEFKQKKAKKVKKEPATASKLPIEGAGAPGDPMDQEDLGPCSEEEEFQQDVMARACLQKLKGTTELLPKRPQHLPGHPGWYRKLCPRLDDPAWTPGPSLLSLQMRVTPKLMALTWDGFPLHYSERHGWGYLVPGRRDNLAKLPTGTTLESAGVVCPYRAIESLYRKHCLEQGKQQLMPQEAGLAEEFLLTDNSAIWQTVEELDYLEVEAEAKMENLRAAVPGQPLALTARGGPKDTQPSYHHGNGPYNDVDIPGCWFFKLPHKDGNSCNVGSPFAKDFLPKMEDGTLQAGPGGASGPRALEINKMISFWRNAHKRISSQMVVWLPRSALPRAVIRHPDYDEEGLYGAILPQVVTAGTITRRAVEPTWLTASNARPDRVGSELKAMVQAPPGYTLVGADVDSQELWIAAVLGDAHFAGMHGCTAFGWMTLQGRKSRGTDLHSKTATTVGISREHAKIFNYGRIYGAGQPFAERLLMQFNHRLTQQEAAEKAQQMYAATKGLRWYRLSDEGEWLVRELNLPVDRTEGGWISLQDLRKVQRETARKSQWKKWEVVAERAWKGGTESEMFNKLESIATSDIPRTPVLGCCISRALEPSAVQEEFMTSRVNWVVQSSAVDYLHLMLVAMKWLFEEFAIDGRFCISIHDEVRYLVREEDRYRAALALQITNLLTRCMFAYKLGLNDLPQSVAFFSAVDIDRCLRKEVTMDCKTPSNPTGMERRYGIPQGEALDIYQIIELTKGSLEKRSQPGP
# [1] = Colony survival, ola with or without RTX-161 (source data sheet Fig. 2 c; cell line not given); assay type: cell-based
# DLD1 Parental cells = experiment: Apoptosis assay (FITC active caspase-3); assay type: cell-based; design: FITC- AVG / FITC+ AVG: unit not given here; details: for FITC+ AVG / FITC- AVG: DLD1 Parental
# Procedure: DLD1 BRCA2 -/-, DLD1 Parental cells were plated on six well plates and treated with RTX-161 1 day after plating. Medium was replaced every 2 days with RTX-161. Cells were harvested 6 days after plating for apoptosis assay using FITC active caspase-3 apoptosis kit (BD biosciences, catalog # 550480) according to manufacturer’s instructions and analyzed by FACS with Celesta (Becton Dickinson).
# HCT116 BRCA2 -/- cells = experiment: Clonogenic assay; assay type: cell-based; details: for Average number of colonies counted / Normalized colonies (% normalized to control): per experiment
# How it was run: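 Cells seeded at low density (300–1000 per well, by plate size and genotype), medium changed every 2 days, colonies grown 10–12 days. Fixed in water:ethanol:acetic acid, stained with 0.5% crystal violet, then counted; IC50 from ≥3 independent experiments, mean ± SEM.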
compound,measurement,setting,value
CN(C(=O)Oc1c(N2CCN(CCO)C2=O)cc(C(F)(F)F)cc1C(F)(F)F)c1ccc(F)cc1 [RTx-161],% Full Extension,Polγ; Pol Gamma,81.33%
same,% Inhibition Compared to Control,Polγ; Pol Gamma,1.34%
same,% Relative Maximum Extension,Polγ; Pol Gamma,98.66%
same,inhibition of primer extension,Polγ; selectivity panel,no inhibition
same,percent suvival,[1]; RTX-161 1 uM + ola 0.125 um,37.2624% and 27.7457% and 32.5843%
same,percent suvival,[1]; RTX-161 1 uM + ola 0.25 um,11.4068% and 11.5607% and 13.4831%
same,percent suvival,"[1]; RTX-161 1 uM, ola 0 um",93.9163% and 101.156% and 103.371%
same,percent suvival,"[1]; RTX-161 2 uM, ola 0 um",93.5361% and 104.624% and 106.742%
same,% population FITC Caspase-3 Negative,DLD1 Parental cells; 10 uM RTX-161,99%
same,% population FITC Caspase-3 Negative,DLD1 Parental cells; 20 uM RTX-161,99%
same,FITC+ AVG,"DLD1 Parental cells; 10 uM, left block of sheet",1.067
same,FITC- AVG,"DLD1 Parental cells; 10 uM, left block of sheet",98.9333
same,FITC+ AVG,"DLD1 Parental cells; 10 uM, middle block of sheet",2.067
same,FITC- AVG,"DLD1 Parental cells; 10 uM, middle block of sheet",98
same,FITC+ AVG,"DLD1 Parental cells; 10 uM, right block of sheet",2.033
same,FITC- AVG,"DLD1 Parental cells; 10 uM, right block of sheet",97.9667
same,FITC+ AVG,"DLD1 Parental cells; 20 uM, left block of sheet",0.9333
same,FITC- AVG,"DLD1 Parental cells; 20 uM, left block of sheet",99.0667
same,FITC+ AVG,"DLD1 Parental cells; 20 uM, middle block of sheet",1.467
same,FITC- AVG,"DLD1 Parental cells; 20 uM, middle block of sheet",98.6667
same,FITC+ AVG,"DLD1 Parental cells; 20 uM, right block of sheet",1.567
same,FITC- AVG,"DLD1 Parental cells; 20 uM, right block of sheet",98.7667
same,IC50,"HCT116 BRCA2 -/- cells; Homo sapiens, HCT-116, HCT116 cells, label beside BRCA2-null curve, read-out: IC50 clonogenic survival",~1000 nM
same,"Normalized colonies, pooled Average of 3 experiments",HCT116 BRCA2 -/- cells; RTX-161 0.5 micro M,92.0788%
same,Average number of colonies counted,HCT116 BRCA2 -/- cells; RTX-161 0.5 micro M,70 and 37.3333 and 38
same,Normalized colonies (% normalized to control),HCT116 BRCA2 -/- cells; RTX-161 0.5 micro M,74.7331% and 113.131% and 88.3721%
same,"Normalized colonies, pooled Average of 3 experiments",HCT116 BRCA2 -/- cells; RTX-161 1 micro M,62.4064%
same,Average number of colonies counted,HCT116 BRCA2 -/- cells; RTX-161 1 micro M,46.6667 and 26.6667 and 24.3333
same,Normalized colonies (% normalized to control),HCT116 BRCA2 -/- cells; RTX-161 1 micro M,49.8221% and 80.8081% and 56.5891%
same,"Normalized colonies, pooled Average of 3 experiments",HCT116 BRCA2 -/- cells; RTX-161 2 micro M,32.1189%
same,Normalized colonies (% normalized to control),HCT116 BRCA2 -/- cells; RTX-161 2 micro M,33.0961% and 35.3535% and 27.907%
same,"Normalized colonies, pooled Average of 3 experiments",HCT116 BRCA2 -/- cells; RTX-161 4 micro M,16.8132%
same,"Normalized colonies, pooled Average of 3 experiments",HCT116 BRCA2 -/- cells; RTX-161 8 micro M,8.53%
same,combination with Rucaparib,HCT116 BRCA2 -/- cells; clonogenic survival,strong synergistic activity
same,combination with Olaparib,"HCT116 BRCA2 -/- cells; clonogenic survival, Combenefit synergy",strong synergistic activity
same,selective killing of BRCA2-null HCT116 cells,"HCT116 BRCA2 -/- cells; colony survival, versus BRCA2-WT",selective killing
